This is an account of results in patent publication US20250376498A1, “FUSION PROTEINS COMPRISING AN IMPROVED GLP-1 RECEPTOR AGONIST AND USES THEREOF” (Guangzhou Innogen Pharmaceutical Group Co., Ltd., priority 2022, published 2025).

Read-outs that look alike come from different tables or passages of the source.

Data set [1] can be described thus: Determination of oxidation levels by LC-MS/MS. Type of data set: physicochemical. On the procedure:
Following the protein oxidation measurement method described in Example 2 or by referring to Bettinger et al., the oxidation levels were determined. It was observed that the GLP-1 fusion protein YN-011 of the present invention was not oxidized at position W31, whereas the oxidation level of […] at the same position exceeded 5%. The oxidation occurred at the location indicated by the rectangular box in the structure of W31.

A further data set deals with db/db mice. Description: Multiple subcutaneous injections in db/db mice (type 2 diabetes model). The format is in vivo. Conditions: db/db mice. The procedure:
The impact of multiple subcutaneous injections of YN-011 on reducing blood glucose levels was evaluated in db/db mice (Jackson Laboratories, 000642). The mice were kept under normal lighting conditions (12 hours light/12 hours dark) and at room temperature, with free access to food (normal rodent chow) and water. Db/db mice lack leptin receptors and spontaneously develop obesity, hyperglycemia, and pancreatic B-cell atrophy by 4 weeks of age.
Sixty affected db/db mice (33-45g) were divided into six groups of 10 mice each (5 males and 5 females) and administered 0 (PBS buffer control), 0.15, 0.3, 0.6, or 1.2 mg/kg of YN-011, or 0.3 mg/kg of Degludec via subcutaneous injection. Another group of wild-type mice (17-22g) with the same genetic background served as the normal control. The administration frequency was once every 3 days (Q3D), with a total of 9 doses administered over a period of 26 days. […] The duration of the hypoglycemic effect ranged from 34 to 72 hours within the dose range of 0.15-1.2 mg/kg.

The conditions of data set [2]: cited from earlier work.
The conditions of data set [3]: marketed drugs, refs [22], [24]; cited from earlier work.
The conditions of data set [4]: cited from earlier work. The source holds these as a separate data set.
The mark [5] stands for this setting: semaglutide 1 mg, 30 weeks (Sorli et al.).
The mark [6] stands for this setting: dulaglutide 1.5 mg, 26 weeks (Shi et al.).
[7] abbreviates: dulaglutide 1.5 mg in combination with metformin, 40 weeks (Dungan et al.).

On to Degludec [reference compound], for which, in data set [1], the “oxidation level at position M253” value is recorded as “exceeding 5%” and the “oxidation level at position W31” value was “exceeded 5%”. Moreover, in the data set on db/db mice (0.3 mg/kg Q3D sc, average over measurement time points), the “average rate of fasting blood glucose reduction” value came to 63.6%. Moreover, the “fasting blood glucose levels versus model control group” value with db/db mice (Q3D sc, YN-011 all dose groups (P<0.001), Degludec 0.3 mg/kg) is reported as “significant decrease”.
Take Semaglutide: the incidence of nausea in data set [2] (semaglutide 0.5 mg, 30 weeks (Sorli et al.)) is recorded as 20%; in data set [2] (setting [5]), 24%; in data set [4] (semaglutide 1 mg in combination with metformin, 30 weeks (Ji et al.)) it was 13.4%. Moreover, in data set [2] (setting [5]), the “reduction in HbA1c levels” value is given as 1.55%. The “half-life / elimination half-life” value in data set [3] is 137 to 161 h.
Consider `CCCCCCCCCCCCCCCC(=O)N[C@@H](CCC(=O)NCCCC[C@H](NC(=O)[C@H](C)NC(=O)[C@H](C)NC(=O)[C@H](CCC(N)=O)NC(=O)CNC(=O)[C@H](CCC(=O)O)NC(=O)[C@H](CC(C)C)NC(=O)[C@H](Cc1ccc(O)cc1)NC(=O)[C@H](CO)NC(=O)[C@H](CO)NC(=O)[C@@H](NC(=O)[C@H](CC(=O)O)NC(=O)[C@H](CO)NC(=O)[C@@H](NC(=O)[C@H](Cc1ccccc1)NC(=O)[C@@H](NC(=O)CNC(=O)[C@H](CCC(=O)O)NC(=O)[C@H](C)NC(=O)[C@@H](N)Cc1cnc[nH]1)[C@@H](C)O)[C@@H](C)O)C(C)C)C(=O)N[C@@H](CCC(=O)O)C(=O)N[C@@H](Cc1ccccc1)C(=O)N[C@H](C(=O)N[C@@H](C)C(=O)N[C@@H](Cc1c[nH]c2ccccc12)C(=O)N[C@@H](CC(C)C)C(=O)N[C@H](C(=O)N[C@@H](CCCNC(=N)N)C(=O)NCC(=O)N[C@@H](CCCNC(=N)N)C(=O)NCC(=O)O)C(C)C)[C@@H](C)CC)C(=O)O` [liraglutide], for which the incidence of nausea in data set [2] (liraglutide 1 mg, 24 weeks (Shuai et al.)) is on record as 5.6%; in data set [2] (liraglutide 3 mg, 24 weeks (Shuai et al.)) it was 10%.
Take “Dulaglutide: DPP-IV protected GLP-1 analog fused with an IgG4/Fc fragment”: the incidence of hypoglycemia in data set [2] (dulaglutide 0.75 mg, 26 weeks (Shi et al.)) is 4.1%. Further, in data set [2] (setting [6]), the incidence of hypoglycemia is 6.3%, the incidence of nausea was 9.5% and the “reduction in HbA1c levels” value is listed as 1.46%. For the same compound, the “half-life / elimination half-life” value in data set [3] is 113 to 132 h. Moreover, in data set [4] (setting [7]), the incidence of hypoglycemia is reported as 9%, the incidence of nausea is 20%, the “reduction in FPG levels” value was 1.93% and the “reduction in HbA1c levels” value was 1.42%.
